Measured values from ChEMBL document CHEMBL5365416, “Identification of Ecdysteroid Sinapate Esters with COX-2 Inhibitory Effects from Fibraurea recisa Using Molecular Networking and MS2LDA” (2023).
The source made the active and inactive calls. No cut-off for these calls is given here.

Key:
RAW264.7 [1] = assay: Inhibition of LPS-induced NO production in mouse RAW264.7 cells at 30 uM relative to control; assay type: functional
RAW264.7 [2] = assay: Inhibition of LPS-induced iNOS protein expression in mouse RAW264.7 cells at 30 uM incubated for 24 hrs by Western blot analysis; assay type: functional, cell-based
RAW264.7 [3] = assay: Inhibition of LPS-induced COX2 protein expression in mouse RAW264.7 cells at 1 to 30 uM incubated for 24 hrs by Western blot analysis; assay type: functional, cell-based; settings: dose 1-30 µM
RAW264.7 [4] = assay: Inhibition of LPS-induced COX2 protein expression in mouse RAW264.7 cells at 0.1 to 30 uM incubated for 24 hrs by Western blot analysis; assay type: functional, cell-based; settings: dose 0.1-30 µM

Row | SMILES | inhibition at 30 µM (RAW264.7 [1]) [%] | inhibition (RAW264.7 [2]) | inhibition (RAW264.7 [3]) | inhibition (RAW264.7 [4])
1 | COc1cc(/C=C/C(=O)O[C@H]2C[C@@]3(C)[C@@H](C[C@H]2O)C(=O)C=C2[C@@H]3CC[C@]3(C)[C@@H]([C@@](C)(O)[C@H](O)C[C@@H](C)C(C)(C)O)CC[C@@]23O)cc(OC)c1O | 12.7 | inactive | Active | –
2 | COc1cc(/C=C/C(=O)O[C@@H]2C[C@H]3C(=O)C=C4[C@H](CC[C@]5(C)[C@@H]([C@@](C)(O)[C@H](O)C[C@@H](C)C(C)(C)O)CC[C@@]45O)[C@@]3(C)C[C@@H]2O)cc(OC)c1O | 14.7 | inactive | inactive | –
3 | C[C@H](C[C@@H](O)[C@](C)(O)[C@H]1CC[C@@]2(O)C3=CC(=O)[C@@H]4C[C@@H](O)[C@@H](O)C[C@]4(C)[C@H]3CC[C@]12C)C(C)(C)O | – | – | – | inactive
4 | COC(=O)/C=C/c1cc(OC)c(O)c(OC)c1 | – | – | – | inactive
